In patent US12655116B2, “Substituted isophthalic acid diamides” (Bayer Aktiengesellschaft, priority 2020, dated 2026):

Assays:
ABUTH [1] = experiment: Pre-emergence herbicidal action against ABUTH; type: in vivo, Abutilon theophrasti; conditions: Abutilon theophrasti, 504 h
Outline: (§1)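 Sandy loam pots, seeds covered with soil, then surface-treated with WP or EC formulations at 600–800 l/ha water plus 0.2% wetting agent. Greenhouse, 3 weeks. Percent damage vs untreated controls.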

ALOMY [2] = experiment: Pre-emergence herbicidal action against ALOMY; type: in vivo, Alopecurus myosuroides; conditions: Alopecurus myosuroides, 504 h; 80 g/ha, pre-emergence, scored visually after 3 weeks vs untreated controls (100% = plants have died, 0% = like control plants)
Outline: as §1

AMARE [3] = experiment: Pre-emergence herbicidal action against AMARE; type: in vivo, Amaranthus retroflexus; conditions: Amaranthus retroflexus, 504 h, scored visually after 3 weeks vs untreated controls, 100% = plants have died, 0% = like control plants
Outline: as §1

AVEFA = experiment: Pre-emergence herbicidal action against AVEFA; type: in vivo, Avena fatua; conditions: Avena fatua, 504 h; 80 g/ha, pre-emergence
Outline: as §1

ECHCG [4] = experiment: Pre-emergence herbicidal action against ECHCG; type: in vivo, Echinochloa crus-galli; conditions: Echinochloa crus-galli, 504 h
Outline: as §1

HORMU = experiment: Pre-emergence herbicidal action against HORMU; type: in vivo, Hordeum murinum; conditions: Hordeum murinum, 504 h; 80 g/ha, pre-emergence
Outline: as §1

LOLRI [5] = experiment: Pre-emergence herbicidal action against LOLRI; type: in vivo, Lolium rigidum; conditions: Lolium rigidum, 504 h, 80 g/ha
Outline: as §1

MATIN [6] = experiment: Pre-emergence herbicidal action against MATIN; type: in vivo, Matricaria inodora; conditions: Tripleurospermum inodorum, 504 h
Outline: as §1

POLCO [7] = experiment: Pre-emergence herbicidal action against POLCO; type: in vivo, Polygonum convolvulus; conditions: Fallopia convolvulus, 504 h, dosage 80 g/ha
Outline: as §1

SETVI [8] = experiment: Pre-emergence herbicidal action against SETVI; type: in vivo, Setaria viridis; conditions: Setaria viridis, 504 h
Outline: as §1

STEME [9] = experiment: Pre-emergence herbicidal action against STEME; type: in vivo, Stellaria media; conditions: Stellaria media, 504 h
Outline: as §1

VERPE [10] = experiment: Pre-emergence herbicidal action against VERPE; type: in vivo, Veronica persica; conditions: Veronica persica, 504 h, dosage 80 g/ha
Outline: as §1

VIOTR [11] = experiment: Pre-emergence herbicidal action against VIOTR; type: in vivo, Viola tricolor; conditions: Viola tricolor, 504 h
Outline: as §1

DIGSA [12] = experiment: Pre-emergence herbicidal action against DIGSA; type: in vivo, Digitaria sanguinalis; conditions: Digitaria sanguinalis, 504 h
Outline: as §1

ABUTH [13] = experiment: Post-emergence herbicidal action against ABUTH; type: in vivo, Abutilon theophrasti; conditions: Abutilon theophrasti, 504 h, visual assessment about 3 weeks after treatment vs untreated controls
Outline: (§2)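 Visual % rating (0% = as untreated, 100% = dead) ~3 wk after spraying one-leaf-stage plants grown in sandy loam; WP/EC in water at 600–800 l/ha, 0.2% wetting agent.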

ALOMY [14] = experiment: Post-emergence herbicidal action against ALOMY; type: in vivo, Alopecurus myosuroides; conditions: Alopecurus myosuroides, 504 h, dosage 20 g/ha, visual assessment about 3 weeks after treatment vs untreated controls
Outline: as §2

AMARE [15] = experiment: Post-emergence herbicidal action against AMARE; type: in vivo, Amaranthus retroflexus; conditions: Amaranthus retroflexus, 504 h, 20 g/ha, visual assessment about 3 weeks after treatment, 100% = plants have died, 0% = like control plants
Outline: as §2

ECHCG [16] = experiment: Post-emergence herbicidal action against ECHCG; type: in vivo, Echinochloa crus-galli; conditions: Echinochloa crus-galli, 504 h, dosage 20 g/ha
Outline: as §2

LOLRI [17] = experiment: Post-emergence herbicidal action against LOLRI; type: in vivo, Lolium rigidum; conditions: Lolium rigidum, 504 h, dosage 20 g/ha
Outline: as §2

MATIN [18] = experiment: Post-emergence herbicidal action against MATIN; type: in vivo, Matricaria inodora; conditions: Tripleurospermum inodorum, 504 h
Outline: as §2

PHBPU = experiment: Post-emergence herbicidal action against PHBPU; type: in vivo, Pharbitis purpurea; conditions: Ipomoea purpurea, 504 h, dosage 20 g/ha
Outline: as §2

POLCO [19] = experiment: Post-emergence herbicidal action against POLCO; type: in vivo, Polygonum convolvulus; conditions: Fallopia convolvulus, 504 h, dosage 20 g/ha
Outline: as §2

SETVI [20] = experiment: Post-emergence herbicidal action against SETVI; type: in vivo, Setaria viridis; conditions: Setaria viridis, 504 h
Outline: as §2

STEME [21] = experiment: Post-emergence herbicidal action against STEME; type: in vivo, Stellaria media; conditions: Stellaria media, 504 h
Outline: as §2

VERPE [22] = experiment: Post-emergence herbicidal action against VERPE; type: in vivo, Veronica persica; conditions: Veronica persica, 504 h, 20 g/ha
Outline: as §2

VIOTR [23] = experiment: Post-emergence herbicidal action against VIOTR; type: in vivo, Viola tricolor; conditions: Viola tricolor, 504 h
Outline: as §2

DIGSA [24] = experiment: Post-emergence herbicidal action against DIGSA; type: in vivo, Digitaria sanguinalis; conditions: Digitaria sanguinalis, 504 h
Outline: as §2

CCNC(=O)c1c(C(F)(F)F)ccc(C(=O)Nc2nnnn2C)c1C [Example 1-26]
pest or weed control at 80 g/ha (ABUTH [1]; 80 g/ha, scored visually after 3 weeks vs untreated controls (100% = plants have died, 0% = like control plants)): 100% | pest or weed control at 20 g/ha (ABUTH [1]; dosage 20 g/ha, scored visually after 3 weeks vs untreated controls, 100% = plants have died, 0% = like control plants, read-out: Pre-emergence action against ABUTH (herbicidal activity in percent)): 100% | pest or weed control at 80 g/ha (ALOMY [2]): 100% | pest or weed control at 20 g/ha (AMARE [3]; 20 g/ha): 100% | pest or weed control at 80 g/ha (AMARE [3]; 80 g/ha): 100% | pest or weed control at 80 g/ha (AVEFA): 100% | pest or weed control at 20 g/ha (ECHCG [4]; 20 g/ha): 80% | pest or weed control at 80 g/ha (ECHCG [4]; 80 g/ha): 100% | pest or weed control at 80 g/ha (HORMU): 80% | pest or weed control at 80 g/ha (LOLRI [5]): 80% | pest or weed control at 20 g/ha (MATIN [6]; dosage 20 g/ha): 100% | pest or weed control at 80 g/ha (MATIN [6]; dosage 80 g/ha): 100% | pest or weed control at 80 g/ha (POLCO [7]): 90% | pest or weed control at 20 g/ha (SETVI [8]; dosage 20 g/ha): 80% | pest or weed control at 80 g/ha (SETVI [8]; dosage 80 g/ha): 100% | pest or weed control at 20 g/ha (STEME [9]; dosage 20 g/ha): 100% | pest or weed control at 80 g/ha (STEME [9]; dosage 80 g/ha): 100% | pest or weed control at 80 g/ha (VERPE [10]): 80% | pest or weed control at 20 g/ha (VIOTR [11]; dosage 20 g/ha): 90% | pest or weed control at 80 g/ha (VIOTR [11]; dosage 80 g/ha): 100% | pest or weed control at 20 g/ha (DIGSA [12]; dosage 20 g/ha): 100% | pest or weed control at 80 g/ha (DIGSA [12]; dosage 80 g/ha): 100% | pest or weed control at 5 g/ha (ABUTH [13]; dosage 5 g/ha): 90% | pest or weed control at 20 g/ha (ABUTH [13]; dosage 20 g/ha): 100% | pest or weed control at 20 g/ha (ALOMY [14]): 90% | pest or weed control at 20 g/ha (AMARE [15]): 100% | pest or weed control at 20 g/ha (ECHCG [16]): 80% | pest or weed control at 20 g/ha (LOLRI [17]): 80% | pest or weed control at 5 g/ha (MATIN [18]; dosage 5 g/ha): 90% | pest or weed control at 20 g/ha (MATIN [18]; dosage 20 g/ha): 90% | pest or weed control at 20 g/ha (PHBPU): 80% | pest or weed control at 20 g/ha (POLCO [19]): 90% | pest or weed control at 5 g/ha (SETVI [20]; dosage 5 g/ha): 100% | pest or weed control at 20 g/ha (SETVI [20]; dosage 20 g/ha): 100% | pest or weed control at 20 g/ha (STEME [21]; 20 g/ha): 90% | pest or weed control at 5 g/ha (STEME [21]; dosage 5 g/ha): 90% | pest or weed control at 20 g/ha (VERPE [22]): 80% | pest or weed control at 5 g/ha (VIOTR [23]; 5 g/ha): 100% | pest or weed control at 20 g/ha (VIOTR [23]; 20 g/ha): 100% | pest or weed control at 5 g/ha (DIGSA [24]; 5 g/ha): 90% | pest or weed control at 20 g/ha (DIGSA [24]; 20 g/ha): 100%
